From ChEMBL document CHEMBL1135556, “alpha-bromoacetophenone derivatives as neutral protein tyrosine phosphatase inhibitors: structure-Activity relationship” (Bioorg Med Chem Lett, 2002)

Columns and labels:
[1] = target: Tyrosine-protein phosphatase non-receptor type 6, SHP-1 (Homo sapiens) (UniProt P29350); assay: Dissociation constant towards SHP-1 receptor-inhibitor complex was determined using PNP as substrate
[2] = target: Tyrosine-protein phosphatase non-receptor type 6, SHP-1 (Homo sapiens) (UniProt P29350); assay: Ratio between dissociation constant and First-order rate constant (K inact / Ki) was determined
[3] = target: Tyrosine-protein phosphatase non-receptor type 6, SHP-1 (Homo sapiens) (UniProt P29350); assay: First-order rate constant (K inact) for conversion of the ExI complex (SHP-1 -inhibitor complex) into the covalent adduct, EI was determined using PNP as substrate
[4] = target: Tyrosine-protein phosphatase non-receptor type 6, SHP-1 (Homo sapiens) (UniProt P29350); assay: Dissociation constant towards SHP 1 receptor-inhibitor complex was determined using PNP as substrate
[5] = target: Tyrosine-protein phosphatase non-receptor type 6, SHP-1 (Homo sapiens) (UniProt P29350); assay: First-order rate constant (K inact) for conversion of the ExI complex (SHP 1 protein -inhibitor complex) into the covalent adduct, EI was determined using PNP as substrate
[6] = target: T1, Tyrosine-protein phosphatase non-receptor type 1 (Homo sapiens) (UniProt P18031); assay: First-order rate constant (K inact) for conversion of the ExI complex (SHP 1 receptor -inhibitor complex) into the covalent adduct, EI was determined using PNP as substrate
T1 sequence (whole entry): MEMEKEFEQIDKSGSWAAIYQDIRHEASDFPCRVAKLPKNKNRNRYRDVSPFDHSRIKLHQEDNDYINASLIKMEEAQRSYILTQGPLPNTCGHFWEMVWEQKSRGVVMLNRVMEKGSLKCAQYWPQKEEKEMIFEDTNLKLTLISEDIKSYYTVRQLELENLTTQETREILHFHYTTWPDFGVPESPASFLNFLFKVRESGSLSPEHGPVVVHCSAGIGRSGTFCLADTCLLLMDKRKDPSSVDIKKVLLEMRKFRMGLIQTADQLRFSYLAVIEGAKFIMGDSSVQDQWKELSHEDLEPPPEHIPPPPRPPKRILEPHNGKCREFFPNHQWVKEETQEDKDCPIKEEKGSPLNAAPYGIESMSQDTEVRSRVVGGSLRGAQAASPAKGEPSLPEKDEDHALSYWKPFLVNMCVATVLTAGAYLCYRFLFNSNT

[7] = target: T2, Tyrosine-protein phosphatase non-receptor type 6 (Homo sapiens, UniProt P29350)
T2 sequence (P29350 whole entry): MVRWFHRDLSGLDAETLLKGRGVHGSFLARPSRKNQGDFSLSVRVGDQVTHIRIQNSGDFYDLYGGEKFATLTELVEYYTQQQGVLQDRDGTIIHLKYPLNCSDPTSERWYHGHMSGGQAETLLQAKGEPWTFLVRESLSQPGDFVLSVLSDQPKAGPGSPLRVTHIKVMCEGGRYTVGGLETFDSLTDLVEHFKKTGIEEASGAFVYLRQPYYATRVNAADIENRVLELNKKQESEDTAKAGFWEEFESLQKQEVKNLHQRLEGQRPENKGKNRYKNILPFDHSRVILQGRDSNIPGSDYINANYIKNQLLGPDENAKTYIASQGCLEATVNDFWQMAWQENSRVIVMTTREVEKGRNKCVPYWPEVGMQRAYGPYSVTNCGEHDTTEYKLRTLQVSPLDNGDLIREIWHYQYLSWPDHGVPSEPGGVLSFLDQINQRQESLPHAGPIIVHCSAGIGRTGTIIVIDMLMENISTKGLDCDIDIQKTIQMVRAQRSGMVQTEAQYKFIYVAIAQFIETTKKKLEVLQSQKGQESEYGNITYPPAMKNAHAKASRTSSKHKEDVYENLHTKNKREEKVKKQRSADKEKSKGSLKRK

[8] = target: T2, Tyrosine-protein phosphatase non-receptor type 6; assay: Dissociation constant towards SHP 1 receptor-inhibitor complex was determined using PNP as substrate

Tyrosine-protein phosphatase non-receptor type 6, SHP-1 (Homo sapiens), sequence (P29350 whole entry, looked up): as the sequence (P29350 whole entry) above

O=C(CCl)c1ccc(F)cc1
Ki [1]: 380 µM | Ratio [2]: 580 M⁻¹ min⁻¹ | kinact [3]: 0.22 min⁻¹

O=C(CCl)c1ccc(O)c(O)c1
Ki [1]: 1400 µM | Ratio [2]: 420 M⁻¹ min⁻¹ | kinact [3]: 0.59 min⁻¹

O=C(CBr)c1ccc(-c2ccccc2C(=O)O)cc1
Ki [4]: 220 µM | Ratio [2]: 4550 M⁻¹ min⁻¹ | kinact [5]: 1 min⁻¹

O=C(O)COc1ccc(C(=O)CCl)cc1
Ki [1]: 2500 µM | Ratio [2]: 710 M⁻¹ min⁻¹ | kinact [3]: 1.8 min⁻¹

O=C(O)COc1ccc(C(=O)CBr)cc1
Ki [4]: 193 µM | Ratio [2]: 9300 M⁻¹ min⁻¹ | kinact [5]: 1.8 min⁻¹

O=C(CCl)c1ccccc1 [PHENACYL CHLORIDE]
Ki [1]: 480 µM | Ratio [2]: 430 M⁻¹ min⁻¹ | kinact [3]: 0.21 min⁻¹

O=C(CCl)c1ccc(F)cc1F
Ki [1]: 17500 µM | Ratio [2]: 120 M⁻¹ min⁻¹ | kinact [3]: 2.1 min⁻¹

O=C(CBr)c1ccccc1
Ki [1]: 81 µM | Ratio [2]: 7100 M⁻¹ min⁻¹ | kinact [3]: 0.58 min⁻¹

O=C(CBr)c1ccc(F)cc1
Ki [1]: 56 µM | Ratio [2]: 9100 M⁻¹ min⁻¹ | kinact [3]: 0.51 min⁻¹

N=C(N)NCCCC(NC(=O)[C@H](CCCNC(=N)N)NC(=O)CNC(=O)COc1ccc(C(=O)CBr)cc1)C(=O)O (some centres not stated)
kinact [6]: 4.8 min⁻¹ | Ratio [2]: 6300 M⁻¹ min⁻¹

O=C(CBr)c1ccc(O)cc1
Ki [1]: 43 µM | Ratio [2]: 9300 M⁻¹ min⁻¹ | kinact [3]: 0.4 min⁻¹

O=C(O)CCC(NC(=O)[C@H](CCC(=O)O)NC(=O)CNC(=O)COc1ccc(C(=O)CBr)cc1)C(=O)O (some centres not stated)
kinact [7]: 6.6 min⁻¹ | Ki [1]: 2.8 µM | Ki [8]: 29 µM | kinact [3]: 1.2 min⁻¹

O=C(CBr)c1ccc(C(F)(F)F)cc1
Ki [1]: 14 µM | Ratio [2]: 26000 M⁻¹ min⁻¹ | kinact [3]: 0.37 min⁻¹

NC(N)=NCCCC(NC(=O)[C@H](CCCN=C(N)N)NC(=O)CNC(=O)COc1ccc(C(=O)CBr)cc1)C(=O)O (some centres not stated)
Ki [4]: 760 µM

O=C(CBr)c1ccccn1
Ki [1]: 173 µM | Ratio [2]: 7500 M⁻¹ min⁻¹ | kinact [3]: 1.3 min⁻¹

O=C(CBr)c1ccc2ccccc2c1
Ki [1]: 25 µM | Ratio [2]: 20000 M⁻¹ min⁻¹ | kinact [3]: 0.48 min⁻¹

O=C(CBr)c1ccc(-c2ccccc2)cc1
Ki [1]: 14 µM | Ratio [2]: 41 M⁻¹ min⁻¹ | kinact [3]: 0.59 min⁻¹

O=C(CBr)c1cccc2ccccc12
Ki [1]: 92 µM | Ratio [2]: 9400 M⁻¹ min⁻¹ | kinact [3]: 0.86 min⁻¹
